In BindingDB's records for doi:10.1021/cb8001039 (National Cancer Institute-Bethesda, 2008):

Experiments:
Assay in all cases: FRET-Based RNase H Assay
Details in all cases: pH 8; 20 °C
Ribonuclease H1 = biological target: T1, Ribonuclease H1 (Homo sapiens, UniProt O60930)
T1 sequence (O60930 whole entry): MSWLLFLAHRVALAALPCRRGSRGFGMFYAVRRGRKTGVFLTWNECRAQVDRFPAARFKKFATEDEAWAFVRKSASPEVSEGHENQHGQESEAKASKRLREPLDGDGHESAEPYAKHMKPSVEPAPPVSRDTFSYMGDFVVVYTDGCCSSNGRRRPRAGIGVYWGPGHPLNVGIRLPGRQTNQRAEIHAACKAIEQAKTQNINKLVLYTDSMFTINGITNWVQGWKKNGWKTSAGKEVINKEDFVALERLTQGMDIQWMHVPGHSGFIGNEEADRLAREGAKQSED
Procedure: (§1) RNaseH assays were performed using an 18-nucleotide 3-fluorescein-labeled RNA annealed to a complementary 18-nucleotide 5-dabcyl conjugated DNA. The increase in fluorescence as a result of RNase H hydrolysis was monitored with a Spectramax Gemini EM fluorescence spectrometer. Data were analyzed using the instrument manufacturer SoftMax pro software. To determine IC50 values, the slope of the curve representing the time dependent increase in fluorescence was determined at 10 min, when initial rate conditions are met and substrate depletion is not significant. The slope values were plotted against the logarithm of the inhibitor concentrations, and IC50 values were determined using SigmaPlot software.

[1] = biological target: T2, Gag-Pol polyprotein [613-1167,R896S,E946D,S1117V]/[618-1043,R896S,E946D] (Human immunodeficiency virus 2, UniProt P04584, E946D/R896S/S1117V)
T2 construct: 613-1167; 618-1043
T2 sequence (P04584 613-1167, looked up, stated change not applied): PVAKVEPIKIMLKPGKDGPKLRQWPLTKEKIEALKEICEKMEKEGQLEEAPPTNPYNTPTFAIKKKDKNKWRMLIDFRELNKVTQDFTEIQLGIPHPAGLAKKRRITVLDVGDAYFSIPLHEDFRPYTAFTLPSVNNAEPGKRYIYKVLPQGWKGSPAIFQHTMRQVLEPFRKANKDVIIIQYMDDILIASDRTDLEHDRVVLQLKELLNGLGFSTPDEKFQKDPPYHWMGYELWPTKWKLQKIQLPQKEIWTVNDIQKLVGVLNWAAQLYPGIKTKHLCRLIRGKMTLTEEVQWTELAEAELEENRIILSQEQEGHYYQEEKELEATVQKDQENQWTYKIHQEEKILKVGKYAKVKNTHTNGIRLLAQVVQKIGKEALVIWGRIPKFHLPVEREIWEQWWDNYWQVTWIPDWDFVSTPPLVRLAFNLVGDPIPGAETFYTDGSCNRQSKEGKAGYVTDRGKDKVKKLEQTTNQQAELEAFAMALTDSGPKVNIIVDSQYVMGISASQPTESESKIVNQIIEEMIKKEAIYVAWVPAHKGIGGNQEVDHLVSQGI
T2 sequence (P04584 618-1043, looked up, stated change not applied): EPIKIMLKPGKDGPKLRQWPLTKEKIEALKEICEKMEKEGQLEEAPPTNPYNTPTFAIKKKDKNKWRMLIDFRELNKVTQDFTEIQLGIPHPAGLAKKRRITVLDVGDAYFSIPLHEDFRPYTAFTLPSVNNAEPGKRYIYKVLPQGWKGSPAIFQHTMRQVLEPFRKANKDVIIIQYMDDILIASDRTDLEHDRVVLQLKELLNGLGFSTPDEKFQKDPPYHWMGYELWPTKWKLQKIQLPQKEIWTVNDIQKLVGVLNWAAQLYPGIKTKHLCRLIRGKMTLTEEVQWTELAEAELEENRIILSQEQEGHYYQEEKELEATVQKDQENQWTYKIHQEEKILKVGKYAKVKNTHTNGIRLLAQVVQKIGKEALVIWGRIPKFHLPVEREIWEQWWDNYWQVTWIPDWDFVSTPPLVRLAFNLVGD
Procedure: as §1

[2] = biological target: T3, Gag-Pol polyprotein [600-1029,C879S]/[600-1159,C879S] (Human immunodeficiency virus 1, UniProt P03366, C879S)
T3 construct: 600-1029; 600-1159
Procedure: as §1

Ribonuclease HI = biological target: T4, Ribonuclease HI (Escherichia coli (strain K12), UniProt P0A7Y4)
T4 sequence (P0A7Y4 whole entry): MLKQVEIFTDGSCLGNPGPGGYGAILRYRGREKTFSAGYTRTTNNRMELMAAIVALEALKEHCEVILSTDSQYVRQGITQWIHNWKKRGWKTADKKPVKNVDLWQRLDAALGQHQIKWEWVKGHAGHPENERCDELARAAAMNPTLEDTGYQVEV
Procedure: as §1

## NC(=O)c1c(N)sc2c1CCCCC2 [SMR000066289]
Ribonuclease H1
  IC50: 10.6 µM
[1]
  IC50: 2.5 µM
[2]
  IC50: 2 µM
Ribonuclease HI
  IC50: 100 µM

## Cc1sc(NC(=O)c2ccco2)c(C(N)=O)c1C [vinylogous urea, NSC727448]
Ribonuclease H1
  IC50: 29 µM
[1]
  IC50: 5 µM
[2]
  IC50: 3.2 µM
Ribonuclease HI
  IC50: 73 µM
